Reference: US3954780A, “Propionic acid derivatives” (Innothera, priority 1970, dated 1976)
In brackets after ≈: the same amount, converted by molar mass. Several values for one entry are separate records, joined by “and”; a condition that tells them apart may be missing. Equal values may be shown once. Where a name gives a salt, the structure may show the parent alone. Read-outs that look alike come from different tables or passages of the source.

What was measured:
[1] = Acute toxicity in the mouse (DL50, method of Miller and Tainter); settings: in vivo, read-out: DL 50 (the source's name)
Description: The acute toxicity of the amine ester derivatives of β-[ benzo(b)thienyl-3]propionic acid have been studied in the mouse by intraperitoneal and oral routes, the products being administered in an isotonic solution of sodium chloride, 0.9%, or in suspension in a dilute aqueous solution of carboxymethyl cellulose.
The calculation of the DL50 has been effected according to the method of MILLER and TAINTER (MILLER. L.C., TAINTER M.L. - Proc. Soc. Exptl. Biol. Med. 1944-57-261,264).

[2] = test system: isolated ileum of the guinea-pig; assay: Spasmolytic activity of atropinic type, acetylcholine chloride contracture; settings: Tyrode 33°; for EC50: Cavia porcellus, read-out: Spasmolytic activity Atropinic type DE 50 (converted)
Description: b. To show activity of atropinic type the contracturant used is acetylcholine chloride acting on the isolated ileum of the guinea-pig. […]

[3] = test system: acute oedema provoked by serotonine in the rat; assay: Anti-serotonic activity, serotonine-induced acute paw oedema; format: in vivo; settings: 30 minutes before serotonine
Procedure: This has been researched in the rat by the technique of the acute oedema localised in the metatarsal region, provoked by the injection of 0.05 ml of a 0.01% solution of serotonine (sulphate of 5-hydroxy-tryptamine-creatinine) in an isotonic solution of sodium chloride.
The plethysmometric measurements of the paw having been subjected to the injection have been effected before, and at different times after, the injection of the serotonine.
The derivatives to be studied have been administered by the oral route 30 minutes before the serotonine.

skin reflex = assay: Local anaesthetic activity, conduction anaesthesia (method of Moukhtar); format: in vivo
Description: The method of MOUKHTAR has been chosen to show the activity of the derivatives studied on conduction anaesthesia (A. MOUKHTAR, C.R. Soc. Biol. 1909-66-187,189).
The reference local anaesthetic substance used in the tests has in each case been procaine hydrochloride in 0.5% solution in an 0.9% isotonic solution of NaCl. The three concentrations used to study the local anaesthetic activity of the new derivatives are 0.50, 0.25 and 0.10%, the vehicle being the isotonic 0.9% solution of NaCl.
The average anaesthetic activity of the substances chosen is expressed comparatively to that of the reference product chosen, by calculating the ratio of the average number n of the stimulations necessary to obtain the appearance of the skin reflex in the case of the derivatives studied, to the average number (n') of the stimulation determined for the reference substance.
The procaine hydrochloride and the derivatives studied are administered by the intradermal route at the rate of 0.20 ml per injection.

isolated rat duodenum = assay: Spasmolytic activity of papaverinic type, barium chloride contracture; settings: Tyrode 38°; for EC50: read-out: Spasmolytic activity Papaverinic type DE 50 (converted)
Procedure: a. To show activity of the papaverinic type, the contracturant used is barium chloride acting on the isolated rat duodenum.
The average activity of the substances studied has been effected by determining graphically their DE 30 and DE 50 these being expressed in μg for 20 ml of bath.

[4] = 0.10 g/100 ml, intradermal 0.20 ml
[5] = 0.25 g/100 ml, intradermal 0.20 ml
[6] = 0.50 g/100 ml, intradermal 0.20 ml
[7] = derivative 0.10 g/100 ml vs procaine hydrochloride 0.50 g/100 ml
[8] = derivative 0.25 g/100 ml vs procaine hydrochloride 0.50 g/100 ml
[9] = derivative 0.50 g/100 ml vs procaine hydrochloride 0.50 g/100 ml

Structure (SMILES)	LD50 ([1]; ip) [mg/kg]	LD50 ([1]; v.o. (oral) route) [mg/kg]	EC50 [2] [µg/mL]	Spasmolytic activity Atropinic type DE 30 [2]	average percentage reduction in oedema after 1 hour ([3]; 30 mg/kg oral) [%]	average percentage reduction in oedema after 2 hours ([3]; 30 mg/kg oral) [%]	average percentage reduction in oedema after 1 hour ([3]; 50 mg/kg oral) [%]	average percentage reduction in oedema after 2 hours ([3]; 50 mg/kg oral) [%]	average number of stimulations for the derivative studied n (skin reflex; [4])	average number of stimulations for the derivative studied n (skin reflex; [5])	average number of stimulations for the derivative studied n (skin reflex; [6])	local anaesthetic activity n/n' (skin reflex; [7])	local anaesthetic activity n/n' (skin reflex; [8])	local anaesthetic activity n/n' (skin reflex; [9])	Spasmolytic activity Papaverinic type DE 30 (isolated rat duodenum)	EC50 (isolated rat duodenum) [µg/mL]	average number of stimulations for procaine hydrochloride n' (skin reflex; procaine hydrochloride 0.50 g/100 ml, intradermal 0.20 ml, hydrochloride)
O=C(OCCCN1CCCC1)C(Cc1csc2ccccc12)CC1CCCO1 (centres unmarked) [Compound 54]	100 ± 12	400 ± 27	4.5 (≈ 11.2 µM)	52 μg/20 ml of bath	22.4	16.0	34.9	45.0	16.7	25.7	31.4	0.6	0.8	1.1	9.5 μg for 20 ml of bath	0.6 (≈ 1.49 µM)	
C=CCC(Cc1csc2ccccc12)C(=O)OCCN1CCCCCC1 (centres unmarked) [Compound 5]	150 ± 17		9 (≈ 24.2 µM)	95 μg/20 ml of bath											13.0 μg for 20 ml of bath	1 (≈ 2.69 µM)	
CCN(CC)CCCOC(=O)C(Cc1csc2ccccc12)CC1CCCO1 (centres unmarked) [Compound 53]	145 ± 9	1150 ± 78	7 (≈ 17.3 µM)	75 μg/20 ml of bath	19.4	15.1	40.6	42.9	14.2	29.1	33.2	0.5	1.0	1.2	4.5 μg for 20 ml of bath	0.4 (≈ 0.991 µM)	
CCN(CC)CCCOC(=O)C(Cc1cccs1)Cc1csc2ccccc12 (centres unmarked) [Compound 42]	240 ± 18		15 (≈ 36.1 µM)	190 μg/20 ml of bath											3.5 μg for 20 ml of bath	0.85 (≈ 2.05 µM)	
O=C(OCCCN1CCCC1)C(Cc1cccs1)Cc1csc2ccccc12 (centres unmarked) [Compound 43]	160 ± 11														7.0 μg for 20 ml of bath	1.25 (≈ 3.02 µM)	
C=CCC(Cc1csc2ccccc12)C(=O)OCCCN(C)C (centres unmarked) [Compound 6]	~120														9.0 μg for 20 ml of bath	1 (≈ 3.02 µM)	
O=C(OCCN1CCCCCC1)C(Cc1csc2ccccc12)CC1CCCO1 (centres unmarked) [Compound 51]	121 ± 10		4.75 (≈ 11.4 µM)	61 μg/20 ml of bath											3.5 μg for 20 ml of bath	0.325 (≈ 0.782 µM)	
O=C(OCCN1CCCCC1)C(Cc1csc2ccccc12)CC1CCCO1 (centres unmarked) [Compound 50]	122 ± 12		3.5 (≈ 8.72 µM)	48 μg/20 ml of bath											5.0 μg for 20 ml of bath	0.6 (≈ 1.49 µM)	
O=C(OCCCN1CCCCC1)C(Cc1csc2ccccc12)CC1CCCO1 (centres unmarked) [Compound 55]	85 ± 12	~450			12.3	11.3	40.7	39.8							3.5 μg for 20 ml of bath	0.375 (≈ 0.902 µM)	
C=CCC(Cc1csc2ccccc12)C(=O)OC(C)CN1CCCC1 (centres unmarked) [Compound 11]	270 ± 59														4.0 μg for 20 ml of bath	0.6 (≈ 1.68 µM)	
O=C(OCCN1CCCC1)C(Cc1csc2ccccc12)CC1CCCO1 (centres unmarked) [Compound 49]	140 ± 9	~650	1.4 (≈ 3.61 µM)	21 μg/20 ml of bath	17.8	12.6									1.6 μg for 20 ml of bath	0.185 (≈ 0.477 µM)	
O=C(OCCN1CCCC1)C(Cc1cccs1)Cc1csc2ccccc12 (centres unmarked) [Compound 37]	320 ± 21		4 (≈ 10 µM)	50 μg/20 ml of bath											6.8 μg for 20 ml of bath	0.65 (≈ 1.63 µM)	
CCN(CC)CCOC(=O)c1ccc(N)cc1 [procaine hydrochloride, reference compound]																	30.5 and 33.9 and 36.0 and 27.2 and 29.5 and 29.2 and 33.7 and 28.2
C=CCC(Cc1csc2ccccc12)C(=O)OCCCN(CC)CC (stereo not drawn) [Compound 7, citrate of the N,N-diethylamino propyl esters of x-allyl-β-[benzo(b)thienyl-3]propionic acid]	210 ± 10	1290 ± 80	16.2	170 μg/20 ml of bath			27.6	36.6	12.2	18.9	29.5	0.3	0.6	1.0	2.2 μg for 20 ml of bath	0.225	
O=C(OCCCN1CCCCC1)C(Cc1csc2ccccc12)c1ccccc1 (centres unmarked) [Compound 21]			4 (≈ 9.81 µM)	40 μg/20 ml of bath											8.0 μg for 20 ml of bath	0.95 (≈ 2.33 µM)	
